“And” between values parts separate entries of the source, which are not always exact repeats. Identical values can stand only once. Like-named read-outs stand apart in the source and are kept apart here.
Assays:
[1] = system: whole blood aggregation, ADP; assay: Whole blood aggregation (Multiplate) ADP test before and one hour after oral betaine (Example 11); format: in vivo, human (patients); settings: for ADP aggregation (AUC): individual patients (one line per patient), one hour after 4 g betaine oral, on aspirin 100 mg/day
Procedure: (§1) 20 patients attending Hospital cardiovascular consultation were enrolled for the study. Patients were all on 100 mg/day aspirin for their cardiovascular protection. Necessary ethical clearance was obtained from Hospital IRB.
(§2) Whole blood aggregation profile using Multiplate® instrument was assessed for each patient before and one hour after oral administration of 4 g of betaine. Blood was sampled on hirudin as anticoagulant.
(§3) Using the different test procedures available for the Multiplate® comprehensive information on platelet function and antiplatelet effects of betaine vs. basal values was assessed. Agonists were prepared in 1 ml solutions according to Multiplatc technical sheets and were used in the following volumes or concentrations: ASPI test: 20 μL, COL test: 20 μL, TRAP test: 20 μL, ADP test: 20 μL, RISTO test: 40 μL (1.2 mg/ml).

[2] = system: platelet aggregation in whole blood, activation by collagen; assay: Multiplate whole blood aggregometry, COL test, blood supplemented with betaine (Example 1); format: cell-based, human (CAD patients); design: Collagen aggregation / Collagen aggregation, mean: unit not given here; settings: for Collagen aggregation / Collagen aggregation, mean: betaine 50 μg/ml; for inhibition at 50 µg/mL: Homo sapiens, Platelet
Procedure: (§4) Protocol Blood of 24 CAD patients on Aspirin or Aspirin+Clopidogrel is supplemented with saline or Betaine (50 μg/ml) and tested for Whole Blood Aggregometry using a Multiplate® (Dynabyte Informations System GmbH, Munich) whole blood aggregometer different agonists where used i.e.:
(§5) ASPI test: Activation by arachidonic acid to detect Aspirin effects. COL test: Collagen activates the collagen receptor, which leads to a release of endogenous arachidonic acid, which is converted to TXA2 and activates the platelet. ADP test: ADP stimulates platelet activation by the ADP receptors. The most important ADP receptor (P2Y12) is blocked by clopidogrel, prasugrel and ticlopidine. TRAP test: TRAP-6 stimulates the thrombin receptor on the platelet surface. TRAP test allows detecting GPIIb/IIIa antagonists.

[3] = system: whole blood aggregation, TRAP test; assay: Whole blood aggregation (Multiplate) TRAP test before and one hour after oral betaine (Example 11); format: in vivo, human (patients); settings: for TRAP aggregation (AUC): individual patients (one line per patient), one hour after 4 g betaine oral, on aspirin 100 mg/day
Procedure: as §1, §2, §3

[4] = system: platelet aggregation in whole blood, activation by TRAP-6; assay: Multiplate whole blood aggregometry, TRAP test, blood supplemented with betaine (Example 1); format: cell-based, human (CAD patients); design: TRAP aggregation / TRAP aggregation, mean: unit not given here; settings: for TRAP aggregation / TRAP aggregation, mean: betaine 50 μg/ml; for inhibition at 50 µg/mL: Homo sapiens, Platelet, betaine 50 μg/ml vs. saline
Procedure: as §4, §5

[5] = system: whole blood aggregation, Ristocetin; assay: Whole blood aggregation (Multiplate) RISTO test before and one hour after oral betaine (Example 11); format: in vivo, human (patients); settings: for Ristocetin aggregation (AUC): individual patients (one line per patient), one hour after 4 g betaine oral, on aspirin 100 mg/day
Procedure: as §1, §2, §3

[6] = system: whole blood aggregation, Collagen; assay: Whole blood aggregation (Multiplate) COL test before and one hour after oral betaine (Example 11); format: in vivo, human (patients); settings: for Collagen aggregation (AUC): individual patients (one line per patient), one hour after 4 g betaine oral, on aspirin 100 mg/day
Procedure: as §1, §2, §3

[7] = system: platelet aggregation in whole blood, activation by arachidonic acid; assay: Multiplate whole blood aggregometry, ASPI test, blood supplemented with betaine (Example 1); format: cell-based, human (CAD patients); design: AspiTest aggregation / AspiTest aggregation, mean: unit not given here; settings: for AspiTest aggregation / AspiTest aggregation, mean: betaine 50 μg/ml; for inhibition at 50 µg/mL: Homo sapiens, Platelet
Procedure: as §4, §5

[8] = system: whole blood aggregation, AspiTest (arachidonic acid); assay: Whole blood aggregation (Multiplate) ASPI test before and one hour after oral betaine (Example 11); format: in vivo, human (patients); settings: for AspiTest aggregation (AUC): individual patients (one line per patient), one hour after 4 g betaine oral, on aspirin 100 mg/day
Procedure: as §1, §2, §3

[9] = system: platelet aggregation in whole blood, activation by ADP; assay: Multiplate whole blood aggregometry, ADP test, blood supplemented with betaine (Example 1); format: cell-based, human (CAD patients); design: ADP aggregation / ADP aggregation, mean: unit not given here; settings: for ADP aggregation / ADP aggregation, mean: betaine 50 μg/ml; for inhibition at 50 µg/mL: Homo sapiens, Platelet, betaine 50 μg/ml vs. saline
Procedure: as §4, §5

[10] = 20 patients, after 4 g betaine by oral route
[11] = ASA responders, after 4 g betaine oral
[12] = ASA and ASA/clopidogrel non responders, individual patients (one line per patient)
[13] = betaine 50 μg/ml vs. saline, p<0.05
[14] = individual patients # 1-24 (one line per patient), blood of CAD patients on aspirin or aspirin+clopidogrel
[15] = ASA poor responders, after 4 g betaine oral
[16] = after 4 g betaine oral, patients on aspirin 100 mg/day

## C[N+](C)(C)CC(=O)O [betaine, glycine betaine of formula (CH3)3N^+(CH2) COO^−]
[1]; [10]
  Difference Vs. basal, ADP: 2%
[1]; 20 patients, after 4 g betaine by oral route, basal mean 55.55
  Mean of AUC aggregations, ADP: 56.5
[1]; ASA poor responders, after 4 g betaine oral, P Student 0.5
  Difference Vs. basal, ADP: −7%
[1]; ASA poor responders
  ADP aggregation (AUC): 71 and 53 and 66 and 60 and 38 and 32 and 70 and 40
[1]; [11]
  Difference Vs. basal, ADP: 8%
[1]; ASA responders
  ADP aggregation (AUC): 2 and 121 and 64 (2×) and 80 and 93 and 14 and 51 and 47 and 44 and 75 and 45
[1]; mean of 8 ASA poor responders after 4 g betaine oral, basal mean 57.75
  ADP aggregation, mean: 53.75
[1]; mean of 12 ASA responders after 4 g betaine oral, basal mean 54.08
  ADP aggregation, mean: 58.33
[2]; [12]
  Collagen aggregation: 42 and 30 and 76 and 91 (2×) and 75 (2×) and 88 and 21 and 24
[2]; ASA and ASA/clopidogrel non responders, betaine 50 μg/ml vs. saline, P (Student) 0.0242, read-out: Additional inhibition, Collagen
  inhibition at 50 µg/mL: 17%
[2]; all 24 patients, betaine 50 μg/ml vs. saline, P (Student) 0.0006, read-out: Betaine additional inhibition, Collagen
  inhibition at 50 µg/mL: 20%
[2]; [13]
  synergistic effect with aspirin and/or clopidogrel on collagen: significant
[2]; [14]
  Collagen aggregation: 4 and 3 (2×) and 35 and 21 (2×) and 75 (2×) and 91 (2×) and 26 and 34 and 29 and 59 and 25 and 24 and 42 and 2 and 30 and 8 and 17 and 76 and 88 and 46
[2]; mean of 10 ASA and ASA/clopidogrel non responders, saline mean 74.4
  Collagen aggregation, mean: 61.3
[2]; mean of 24 patients, saline mean 48.46
  Collagen aggregation, mean: 38.54
[3]; [10]
  Difference Vs. basal, TRAP: 0%
[3]; 20 patients, after 4 g betaine by oral route, basal mean 91.95
  Mean of AUC aggregations, TRAP: 91.9
[3]; [15]
  Difference Vs. basal, TRAP: 3%
[3]; ASA poor responders
  TRAP aggregation (AUC): 106 (2×) and 66 (2×) and 133 and 103 and 60 and 95
[3]; [11]
  Difference Vs. basal, TRAP: −2%
[3]; ASA responders
  TRAP aggregation (AUC): 64 and 154 and 115 and 136 and 131 and 29 and 80 and 77 (2×) and 67 and 104 and 69
[3]; mean of 8 ASA poor responders after 4 g betaine oral, basal mean 89
  TRAP aggregation, mean: 91.875
[3]; mean of 12 ASA responders after 4 g betaine oral, basal mean 93.92
  TRAP aggregation, mean: 91.92
[4]; [12]
  TRAP aggregation: 155 and 141 and 93 and 179 and 120 and 100 and 67 and 103 (2×) and 29
[4]; ASA and ASA/clopidogrel non responders, P (Student) 0.093, read-out: Additional inhibition, TRAP
  inhibition at 50 µg/mL: 19%
[4]; all patients, P (Student) 0.0392, read-out: Betaine additional inhibition, TRAP
  inhibition at 50 µg/mL: 13%
[4]; [14]
  TRAP aggregation: 60 (2×) and 102 and 79 and 67 and 103 (2×) and 87 and 84 and 31 and 153 and 152 and 29 and 155 and 141 and 83 and 30 and 22 and 93 and 179 and 120 and 100 and 127
[4]; mean of 10 ASA and ASA/clopidogrel non responders, saline mean 133.7
  TRAP aggregation, mean: 109
[4]; mean of patients, saline mean 108
  TRAP aggregation, mean: 93.91
[5]; 20 patients, after 4 g betaine by oral route, P Student 0.012
  Difference Vs. basal, Ristocetin: −37%
[5]; 20 patients, after 4 g betaine by oral route, basal mean 53.4
  Mean of AUC aggregations, Ristocetin: 33.6
[5]; ASA poor responders, after 4 g betaine oral, P Student 0.22
  Difference Vs. basal, Ristocetin: −24%
[5]; ASA poor responders
  Ristocetin aggregation (AUC): 62 and 78 and 123 and 81 and 30 and 2 and 43 and 11
[5]; ASA responders, after 4 g betaine oral, P Student 0.031
  Difference Vs. basal, Ristocetin: −52%
[5]; ASA responders
  Ristocetin aggregation (AUC): 39 and 10 and 42 and 23 and 35 and 6 and 3 and 21 and 14 (2×) and 26 and 9
[5]; [16]
  effect on platelet function, ristocetin aggregation (agglutination): ameliorated significantly
[5]; mean of 8 ASA poor responders after 4 g betaine oral, basal mean 70.75
  Ristocetin aggregation, mean: 53.75
[5]; mean of 12 ASA responders after 4 g betaine oral, basal mean 41.83
  Ristocetin aggregation, mean: 20.17
[6]; 20 patients, after 4 g betaine by oral route, P Student 0.045
  Difference Vs. basal, Collagen: −19%
[6]; 20 patients, after 4 g betaine by oral route, basal mean 30.35
  Mean of AUC aggregations, Collagen: 24.65
[6]; [15]
  Difference Vs. basal, Collagen: −1%
[6]; ASA poor responders
  Collagen aggregation (AUC): 47 and 48 and 32 and 18 and 10 and 58 and 65 and 57
[6]; ASA responders, after 4 g betaine oral, P Student 0.039
  Difference Vs. basal, Collagen: −41%
[6]; ASA responders
  Collagen aggregation (AUC): 11 and 7 and 29 and 12 and 23 and 4 and 10 (2×) and 3 (2×) and 30 and 16
[6]; [16]
  effect on platelet function, collagen aggregation: ameliorated significantly
[6]; mean of 8 ASA poor responders after 4 g betaine oral, basal mean 42.375
  Collagen aggregation, mean: 41.875
[6]; mean of 12 ASA responders after 4 g betaine oral, basal mean 22.33
  Collagen aggregation, mean: 13.17
[7]; [12]
  AspiTest aggregation: 121 and 75 and 97 and 125 and 87 and 94 (2×) and 84 and 49 and 61
[7]; ASA and ASA/clopidogrel non responders, betaine 50 μg/ml vs. saline, P (Student) 0.0043, read-out: Additional inhibition, AspiTest
  inhibition at 50 µg/mL: 20%
[7]; all 24 patients, betaine 50 μg/ml vs. saline, P (Student) 0.0109, read-out: Betaine additional inhibition, AspiTest
  inhibition at 50 µg/mL: 17%
[7]; [13]
  synergistic effect with aspirin and/or clopidogrel on AspiTest: significant
[7]; [14]
  AspiTest aggregation: 10 and 22 and 54 and 18 and 84 and 94 (2×) and 62 and 29 and 21 and 49 and 17 (2×) and 5 and 61 and 121 and 13 and 75 and 12 and 6 and 97 and 125 and 87 and 77
[7]; mean of 10 ASA and ASA/clopidogrel non responders, saline mean 111.1
  AspiTest aggregation, mean: 88.7
[7]; mean of 24 patients, saline mean 62.54
  AspiTest aggregation, mean: 52.08
[8]; 20 patients, after 4 g betaine by oral route, P Student 0.57
  Difference Vs. basal, AspiTest: 5%
[8]; 20 patients, after 4 g betaine by oral route, basal mean 23.05
  Mean of AUC aggregations, AspiTest: 24.15
[8]; [15]
  Difference Vs. basal, AspiTest: 3%
[8]; ASA poor responders
  AspiTest aggregation (AUC): 24 and 74 and 81 and 69 and 46 and 27 and 35 and 52
[8]; ASA responders, after 4 g betaine oral, P Student 0.6
  Difference Vs. basal, AspiTest: 14%
[8]; ASA responders
  AspiTest aggregation (AUC): 11 and 7 and 4 (2×) and 9 (2×) and 5 and 1 and 3 (2×) and 6 and 13
[8]; mean of 8 ASA poor responders after 4 g betaine oral, basal mean 49.375
  AspiTest aggregation, mean: 51
[8]; mean of 12 ASA responders after 4 g betaine oral, basal mean 5.5
  AspiTest aggregation, mean: 6.25
[9]; [12]
  ADP aggregation: 173 and 70 and 89 (2×) and 86 and 90 and 63 and 77 and 83 and 56
[9]; ASA and ASA/clopidogrel non responders, P (Student) 0.449, read-out: Additional inhibition, ADP
  inhibition at 50 µg/mL: 5%
[9]; all patients, P (Student) 0.067, read-out: Betaine additional inhibition, ADP
  inhibition at 50 µg/mL: 8%
[9]; [14]
  ADP aggregation: 44 and 1 and 68 and 46 and 63 and 77 and 82 and 57 and 83 and 100 and 81 and 56 and 173 and 4 and 70 and 29 and 6 and 13 and 89 (2×) and 86 and 90 and 115
[9]; mean of 10 ASA and ASA/clopidogrel non responders, saline mean 91.8
  ADP aggregation, mean: 87.6
[9]; mean of patients, saline mean 71.78
  ADP aggregation, mean: 66.17

Source: US20100292327A1, “TREATMENT OF ASPIRIN RESISTANCE WITH BETAINE AND/OR BETAINE ENRICHED MOLASSES” (priority 2007, published 2010)
